“Also recorded” adds a separate entry of the source.
Legend:
SMN complex = assay: high-throughput 384-well SMN complex activity / snRNP assembly assay; assay type: biochemical; conditions: test compound added to labeled RNA, cell extract and ATP; identified inhibitors, FIG. 10
Description: The present assay comprises labeling an RNA, in the case of an assay to measure Sm core activity, the RNA is snRNA. The RNA is preferably labeled with a non-radioactive tag, such as biotin-UTP. […] The labeled RNA binds the plate through the interaction between biotin and avidin/streptavidin. The RNA binding proteins present in the cell extract bind their RNA target at sequence specific sites, forming a ribonucleoprotein complex in the multi-well plate substrate. The ribonucleoprotein complex is captured on the plate and the plate is washed one or more times. An anti RNA binding protein antibody is then added to the plate. The plate is again washed one or more times and an labeled antibody, such as an HRP labeled antibody, is added to the multi-well plate substrate. The plate is washed one or more times, and HRP substrate is added. Chemiluminescence generated by HRP is detected using a plate reader.
Five microliters of test compound dissolved in DMSO were added to each well of the plate. Five microliters of HeLa whole cell extract containing 8 μg of total protein was added to each well. The plate was centrifuged (5 minutes at 1000 rpm), and the assembly reactions were allowed to proceed for 1 hour at room temperature. The reaction mixtures were aspirated and 20 μl/well of Y12 antibody (diluted 1:1000 in RSB-500 (10 mM Tris/HCl, pH 7.5, 500 mM NaCl, 2.5 mM MgCl2, and 0.1% Nonidet P-40 (NP-40)) containing 1 mg/ml BSA, 2 mg/ml heparin, and 1× Complete EDTA-free Protease Inhibitor Cocktail) was added. The plate was centrifuged for 5 minutes at 1000 rpm, and incubated for 1 hour at room temperature.
The plate was washed 10× with RSB-500 using an automated plate washer, followed by the addition of 20 ml/well of horseradish peroxidase-conjugated AffiniPure goat anti-mouse IgG+IgM (diluted 1:10,000 in RSB-500 containing 1 mg/ml BSA) for 1 hour at room temperature. The plate was centrifuged for 5 minutes at 1000 rpm. The plate was then washed 10× using an automated washer and 20 μl of SuperSignal ELISA Femto Maximum Sensitivity enhanced chemiluminescence substrate working solution was added into each well. The plate was then centrifuged for 5 minutes at 1000 rpm. The luminescence signal was measured using a plate Reader.
The assay of the present invention can also be used to determine the dose response activity of a compound on an RNA binding protein-RNA complex.

[1] = system: Sm core assembly on U4 snRNA in HeLa cytoplasmic extracts; assay: magnetic beads assay for in vitro assembly of snRNPs (Sm core assembly); assay type: biochemical; conditions: cell extracts, AMP-PNP in place of ATP, FIG. 3A
Procedure: For quantitative in vitro assembly assays on magnetic beads, cytoplasmic extracts were prepared and used for assembly on biotin-labeled snRNAs using the standard reconstitution conditions in 96-well plates. Following the reactions, Y12 antibodies immobilized onto the magnetizable Dynabeads Protein A (Dynal Biotech ASA, Oslo, Norway) in 100 μl of RSB-500 buffer (10 mM Tris/HCl pH 7.5, 500 mM NaCl, 2.5 mM MgCl2) containing 2 mg/ml heparin, 0.1% NP-40, and 0.2 U/μl RNasin Plus RNase inhibitor (Promega, Madison, Wis.) were added to each well. Immunoprecipitations in the 96-well plates were carried out with gentle mixing at 750 rpm in a Thermomixer (Eppendorf, Germany) at 30° C. for 1 hour. The plates were subsequently transferred to a Kingfisher 96 magnetic particle processor (Thermo Labsystems, Vantaa, Finland) for automatic washing of the Dynabeads in each well with wash buffer (RSB-500, 0.1% NP-40) 5 times. […] The plates were transferred to a Wallac Victor2 multi-label plate reader (Perkin-Elmer, Wellesley, Mass.) for luminescence measurements at 495 nm. The resulting data were analyzed with Microsoft Excel.
To facilitate the study of the snRNP assembly process, an assay that allows a quantitative measurement of Sm core formation was developed (FIG. 2). […] This step also serves to amplify the signals for the luminescence measurement of the HRP activity on an automatic plate reader. […]

| SMILES | formation of an RNA binding protein-RNA complex (SMN complex) | Sm core assembly (snRNP complex formation) [1] |
| --- | --- | --- |
| Oc1c(Cl)cc(Cl)c(Cl)c1Cc1c(O)c(Cl)cc(Cl)c1Cl [hexachlorophene] | inhibits the formation of an RNA binding protein-RNA complex | – |
| Oc1c(Cl)cc(Cl)cc1Sc1cc(Cl)cc(Cl)c1O [bithionol] | inhibits the formation of an RNA binding protein-RNA complex | – |
| Nc1ncnc2c1ncn2[C@@H]1O[C@H](COP(=O)(O)OP(=O)(O)NP(=O)(O)O)[C@@H](O)[C@H]1O [AMP-PNP, adenosine 5′-(β,γ-imido)triphosphate] | – | does not permit the formation; also recorded: does not occur |
| O=C1C(SCCO)=C(SCCO)C(=O)c2ccccc21 [2,3-bis[(2-Hydroxyehtyl)thio]-1,4-naphthoquinone] | inhibits the formation of an RNA binding protein-RNA complex | – |
| CC1(C)CCC2=C(O1)c1ccccc1C(=O)C2=O [beta-lapachone] | inhibits the formation of an RNA binding protein-RNA complex | – |

Reference: patent US8822168B2, “Assays for detecting small nuclear ribonucleoprotein particle assembly and survival of motor neurons activity” (The Trustees of the University of Pennsylvania, priority 2005, dated 2014)
